The values below are quoted from earlier work in US20160067273A1, “Compositions and methods for preparation of synthetic alpha-gal nanoparticles and for their clinical use” (priority 2014, published 2016).

SMILES strings stand for the structures.

This data set has as its system human natural anti-Gal antibody. The note with it: equilibrium dialysis.

For the compound `OC[C@H]1O[C@H](O[C@H]2[C@@H](O)[C@@H](CO)OC(O)[C@@H]2O)[C@H](O)[C@@H](O)[C@H]1O` (some centres unmarked) [Galα1-3Gal], the “fold by which affinity of anti-Gal to Galα1-3Galβ1-4GlcNAc is higher than the affinity to this carbohydrate” value (“fold by which affinity of anti-Gal” below) is 10 fold. `CC(=O)N[C@H]1C(O)O[C@H](CO)[C@@H](O[C@@H]2O[C@H](CO)[C@H](O)[C@H](O[C@H]3O[C@H](CO)[C@H](O)[C@H](O)[C@H]3O)[C@H]2O)[C@@H]1O` (some centres unmarked) [Galα1-3Galβ1-4GlcNAc]: the “affinity (strength of binding) of anti-Gal to synthetic free oligosaccharide, rank” value is given as “highest”. Regarding `OC[C@H]1O[C@H](O[C@H]2[C@@H](O)[C@@H](CO)O[C@@H](O[C@H]3[C@H](O)[C@@H](O)C(O)O[C@@H]3CO)[C@@H]2O)[C@H](O)[C@@H](O)[C@H]1O` (some centres unmarked) [Galα1-3Galβ1-4Glc], the “affinity of anti-Gal lower than that to Galα1-3Galβ1-4GlcNAc” value is given as “approximately 30%”. As to `OC[C@H]1O[C@H](OCC2O[C@@H](O)[C@H](O)[C@@H](O)[C@@H]2O)[C@H](O)[C@@H](O)[C@H]1O` (some centres unmarked) [melibiose, Galα1-6Glc], the “fold by which affinity of anti-Gal” value was 300 fold. For the compound `CO[C@@H]1O[C@H](CO)[C@H](O)[C@H](O)[C@H]1O` [methyl-galactoside], the “fold by which affinity of anti-Gal” value is reported as 300 fold.
